From article PMC10718593, “Rational design, synthesis, molecular modeling, biological activity, and mechanism of action of polypharmacological norfloxacin hydroxamic acid derivatives” (RSC Medicinal Chemistry, 2023)
Values after ≈ are worked out from the molar mass of the structure shown.

System: E. coli
Experiment: microbe, parasite or virus in culture
Parameters: Minimal inhibitory concentration, bacterial growth inhibition
Settings: Escherichia coli
Protocol: Minimal inhibitory concentrations (MICs) were determined against a panel of test strains comprising Gram-negative, Gram-positive, and mycobacteria, including a fluoroquinolone-resistant, clinical isolate of E. coli and an MRSA strain that is also resistant to norfloxacin and ciprofloxacin (Table 1).

| SMILES | MIC |
| --- | --- |
| CCn1cc(C(=O)NO)c(=O)c2cc(F)c(N3CCN(C)CC3)cc21 [11a] | 0.18 µM (≈ 0.0627 µg/mL) |
| CCCCCN1CCN(c2cc3c(cc2F)c(=O)c(C(=O)NO)cn3CC)CC1 [11d, 1-ethyl-6-fluoro-1,4-dihydro-N-hydroxy-7-(4-pentylpiperazin-1-yl)-4-oxoquinoline-3-carboxamide] | 0.3 µM (≈ 0.121 µg/mL) |
| CCn1cc(C(=O)NO)c(=O)c2cc(F)c(N3CCN(Cc4ccc(Cl)cc4)CC3)cc21 [11f] | 1.08 µM (≈ 0.496 µg/mL) |
| CCn1cc(C(=O)O)c(=O)c2cc(F)c(N3CCN(CN4CCCCC4)CC3)cc21 [19a, 1-ethyl-6-fluoro-1,4-dihydro-4-oxo-7-(4-((piperidin-1-yl)methyl)piperazin-1-yl)quinoline-3-carboxylic acid] | 0.3 µM (≈ 0.125 µg/mL) |
| CCn1cc(C(=O)NO)c(=O)c2cc(F)c(N3CCN(CN4CCOCC4)CC3)cc21 [20b] | 0.28 µM (≈ 0.121 µg/mL) |
| CCn1cc(C(=O)NO)c(=O)c2cc(F)c(N3CCN(CN4C(=O)CCC4=O)CC3)cc21 [23a, 1-ethyl-6-fluoro-1,4-dihydro-N-hydroxy-4-oxo-7-(4-((2,5-dioxopyrrolidin-1-yl)methyl)piperazin-1-yl)quinoline-3-carboxamide] | 0.56 µM (≈ 0.249 µg/mL) |
| CCn1cc(C(=O)O)c(=O)c2cc(F)c(N3CCN(CNc4ccc([N+](=O)[O-])cc4)CC3)cc21 [compound 25, 25] | 0.266 µM (≈ 0.125 µg/mL) |
